Experimental data taken from PubChem BioAssay AID2060611 (Molecular Pharmacology Branch, DTP, NCI, 2025).

System: 628569-122-R-J1-PDC complex spheroid viability
Experiment: Anticancer human tumor 628569-122-R-J1-PDC patient-derived head and neck squamous carcinoma cell line growth inhibition [CLK]
Conditions: for IC50: curve of first compound; for viability, T/C: stronger effect = lower value; active = viability on the fitted dose curve at most 10% of control; inactive = the rest
Summary of the method: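 Patient-derived tumor cells grown as complex spheroids with HUVEC endothelial cells and mesenchymal stem cells, treated with drug combinations. Concentrations descend in half-log steps from near clinical Cmax, or from 10 microM if Cmax unknown.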

[1] = second compound 0.0316 µM, first compound 0.00316 µM
[2] = second compound 0.0316 µM, first compound 0.01 µM
[3] = second compound 0.0316 µM, first compound 0.0316 µM
[4] = second compound 0.0316 µM, first compound 0.1 µM
[5] = second compound 0.0316 µM, first compound 0.316 µM
[6] = second compound 0.0316 µM, first compound 1 µM
[7] = second compound 0.1 µM, first compound 0.00316 µM
[8] = second compound 0.1 µM, first compound 0.01 µM
[9] = second compound 0.1 µM, first compound 0.0316 µM
[10] = second compound 0.1 µM, first compound 0.1 µM
[11] = second compound 0.1 µM, first compound 0.316 µM
[12] = second compound 0.1 µM, first compound 1 µM
[13] = second compound 0.316 µM, first compound 0.00316 µM
[14] = second compound 0.316 µM, first compound 0.01 µM
[15] = second compound 0.316 µM, first compound 0.0316 µM
[16] = second compound 0.316 µM, first compound 0.1 µM
[17] = second compound 0.316 µM, first compound 0.316 µM
[18] = second compound 0.316 µM, first compound 1 µM
[19] = second compound 1 µM, first compound 0.00316 µM
[20] = second compound 1 µM, first compound 0.01 µM
[21] = second compound 1 µM, first compound 0.0316 µM
[22] = second compound 1 µM, first compound 0.1 µM
[23] = second compound 1 µM, first compound 0.316 µM
[24] = second compound 1 µM, first compound 1 µM
[25] = second compound 3.16 µM, first compound 0.00316 µM
[26] = second compound 3.16 µM, first compound 0.01 µM
[27] = second compound 3.16 µM, first compound 0.0316 µM
[28] = second compound 3.16 µM, first compound 0.1 µM
[29] = second compound 3.16 µM, first compound 0.316 µM
[30] = second compound 3.16 µM, first compound 1 µM
[31] = second compound 10 µM, first compound 0.00316 µM
[32] = second compound 10 µM, first compound 0.01 µM
[33] = second compound 10 µM, first compound 0.0316 µM
[34] = second compound 10 µM, first compound 0.1 µM
[35] = second compound 10 µM, first compound 0.316 µM
[36] = second compound 10 µM, first compound 1 µM
[37] = second compound 0.0316 µM, first compound 3.16 µM
[38] = second compound 0.0316 µM, first compound 10 µM
[39] = second compound 0.1 µM, first compound 3.16 µM
[40] = second compound 0.1 µM, first compound 10 µM
[41] = second compound 0.316 µM, first compound 3.16 µM
[42] = second compound 0.316 µM, first compound 10 µM
[43] = second compound 1 µM, first compound 3.16 µM
[44] = second compound 1 µM, first compound 10 µM
[45] = second compound 3.16 µM, first compound 3.16 µM
[46] = second compound 3.16 µM, first compound 10 µM
[47] = second compound 10 µM, first compound 3.16 µM
[48] = second compound 10 µM, first compound 10 µM
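Note: spheroids exposed to agents for seven days before readout.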
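Throughout, for viability, T/C: 100% = DMSO vehicle control viability.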

CCc1c2c(nc3ccc(O)cc13)-c1cc3c(c(=O)n1C2)COC(=O)[C@]3(O)CC + CN1CCN(c2cc(C(=O)Nc3cc4cc(-c5cnn(C)c5)ccc4cn3)ccn2)CC1
inactive: viability, T/C [1] 61.5% | viability, T/C [2] 53.1% | viability, T/C [3] 50.2% | viability, T/C [4] 52.2% | viability, T/C [5] 35.8% | viability, T/C [7] 50.9% | viability, T/C [8] 49.9% | viability, T/C [9] 47.9% | viability, T/C [10] 58.3% | viability, T/C [11] 23.7% | viability, T/C [13] 40.4% | viability, T/C [14] 36.4% | viability, T/C [15] 15%
active: viability, T/C [6] 9.26% | viability, T/C [12] 5.24% | viability, T/C [16] 9.88% | viability, T/C [17] 4.62% | viability, T/C [18] 6.11% | viability, T/C [19] 5.48% | viability, T/C [20] 4.65% | viability, T/C [21] 8.79% | viability, T/C [22] 7.58% | viability, T/C [23] 5.31% | viability, T/C [24] 2.58% | viability, T/C [25] 9.55% | viability, T/C [26] 6.32% | viability, T/C [27] 5.67% | viability, T/C [28] 8.5% | viability, T/C [29] 4.73% | viability, T/C [30] 2.6% | viability, T/C [31] 1.57% | viability, T/C [32] 2.38% | viability, T/C [33] 4% | viability, T/C [34] 4.91% | viability, T/C [35] 3.1% | viability, T/C [36] 0.67%
< 3.16 nM: IC50 (second compound 0.316 µM) | IC50 (second compound 1 µM) | IC50 (second compound 3.16 µM) | IC50 (second compound 10 µM)
90.2 nM: IC50 (second compound 0.0316 µM)
107 nM: IC50 (second compound 0.1 µM)

Cn1ncnc1[C@H]1c2n[nH]c(=O)c3cc(F)cc(c23)N[C@@H]1c1ccc(F)cc1 + CN1CCN(c2cc(C(=O)Nc3cc4cc(-c5cnn(C)c5)ccc4cn3)ccn2)CC1
inactive: viability, T/C (second compound 0.0316 µM, first compound 0.000316 µM) 91.6% | viability, T/C (second compound 0.0316 µM, first compound 0.001 µM) 98.2% | viability, T/C [1] 89.9% | viability, T/C [2] 92.5% | viability, T/C [3] 82.7% | viability, T/C [4] 58.4% | viability, T/C (second compound 0.1 µM, first compound 0.000316 µM) 58.3% | viability, T/C (second compound 0.1 µM, first compound 0.001 µM) 68.8% | viability, T/C [7] 69.9% | viability, T/C [8] 62.5% | viability, T/C [9] 53.8% | viability, T/C [10] 47.5% | viability, T/C (second compound 0.316 µM, first compound 0.000316 µM) 35.3% | viability, T/C (second compound 0.316 µM, first compound 0.001 µM) 31.6% | viability, T/C [13] 33.2% | viability, T/C [14] 34.2% | viability, T/C [15] 33% | viability, T/C [16] 21.4% | viability, T/C (second compound 1 µM, first compound 0.000316 µM) 12.2%
active: viability, T/C (second compound 1 µM, first compound 0.001 µM) 4.22% | viability, T/C [19] 4.14% | viability, T/C [20] 4.53% | viability, T/C [21] 6.11% | viability, T/C [22] 5.95% | viability, T/C (second compound 3.16 µM, first compound 0.000316 µM) 9.51% | viability, T/C (second compound 3.16 µM, first compound 0.001 µM) 3.28% | viability, T/C [25] 6.67% | viability, T/C [26] 8.93% | viability, T/C [27] 9.05% | viability, T/C [28] 5.6% | viability, T/C (second compound 10 µM, first compound 0.000316 µM) 7.27% | viability, T/C (second compound 10 µM, first compound 0.001 µM) 1.99% | viability, T/C [31] 2.02% | viability, T/C [32] 9.25% | viability, T/C [33] 4.57% | viability, T/C [34] 0.98%
< 0.316 nM: IC50 (second compound 0.316 µM) | IC50 (second compound 1 µM) | IC50 (second compound 3.16 µM) | IC50 (second compound 10 µM)
> 100 nM: IC50 (second compound 0.0316 µM)
69 nM: IC50 (second compound 0.1 µM)

Nc1ccn(C2OC(CO)C(O)C2(F)F)c(=O)n1 (stereo not given) + CN1CCN(c2cc(C(=O)Nc3cc4cc(-c5cnn(C)c5)ccc4cn3)ccn2)CC1
> 10000 nM: IC50 (second compound 0.0316 µM) | IC50 (second compound 0.1 µM)
active: viability, T/C [21] 5.39% | viability, T/C [22] 3.49% | viability, T/C [23] 4.39% | viability, T/C [24] 4.7% | viability, T/C [43] 3.75% | viability, T/C [44] 3.77% | viability, T/C [27] 8.67% | viability, T/C [28] 5.79% | viability, T/C [29] 7.19% | viability, T/C [30] 5% | viability, T/C [45] 7.97% | viability, T/C [46] 3.35% | viability, T/C [33] 4.52% | viability, T/C [34] 4.25% | viability, T/C [35] 3.92% | viability, T/C [36] 6.65% | viability, T/C [47] 2.05% | viability, T/C [48] 1.36%
< 31.6 nM: IC50 (second compound 0.316 µM) | IC50 (second compound 1 µM) | IC50 (second compound 3.16 µM) | IC50 (second compound 10 µM)
inactive: viability, T/C [3] 71.5% | viability, T/C [4] 57.1% | viability, T/C [5] 55.4% | viability, T/C [6] 58.4% | viability, T/C [37] 59% | viability, T/C [38] 62.9% | viability, T/C [9] 58.3% | viability, T/C [10] 48.6% | viability, T/C [11] 52.9% | viability, T/C [12] 56.8% | viability, T/C [39] 51.9% | viability, T/C [40] 65.2% | viability, T/C [15] 28.5% | viability, T/C [16] 31.5% | viability, T/C [17] 23.9% | viability, T/C [18] 35.1% | viability, T/C [41] 36.1% | viability, T/C [42] 29.3%

O=C(c1cc(Cc2n[nH]c(=O)c3ccccc23)ccc1F)N1CCN(C(=O)C2CC2)CC1 + CN1CCN(c2cc(C(=O)Nc3cc4cc(-c5cnn(C)c5)ccc4cn3)ccn2)CC1
active: viability, T/C [21] 9.74% | viability, T/C [22] 5.97% | viability, T/C [23] 9.24% | viability, T/C [24] 5% | viability, T/C [43] 8.27% | viability, T/C [44] 8.76% | viability, T/C [27] 6.83% | viability, T/C [28] 7.39% | viability, T/C [29] 8.5% | viability, T/C [30] 5.51% | viability, T/C [45] 6.5% | viability, T/C [46] 8.04% | viability, T/C [33] 3.42% | viability, T/C [34] 3.07% | viability, T/C [35] 1.85% | viability, T/C [36] 3.59% | viability, T/C [47] 3.68% | viability, T/C [48] 2.67%
inactive: viability, T/C [3] 91.9% | viability, T/C [4] 89.5% | viability, T/C [5] 91.2% | viability, T/C [6] 83.3% | viability, T/C [37] 56.8% | viability, T/C [38] 46.5% | viability, T/C [9] 55.8% | viability, T/C [10] 56.6% | viability, T/C [11] 61.9% | viability, T/C [12] 49.8% | viability, T/C [39] 41.5% | viability, T/C [40] 33.7% | viability, T/C [15] 34.6% | viability, T/C [16] 33.6% | viability, T/C [17] 33.9% | viability, T/C [18] 27.7% | viability, T/C [41] 16.8% | viability, T/C [42] 14.2%
< 31.6 nM: IC50 (second compound 0.316 µM) | IC50 (second compound 1 µM) | IC50 (second compound 3.16 µM) | IC50 (second compound 10 µM)
1210 nM: IC50 (second compound 0.1 µM)
6760 nM: IC50 (second compound 0.0316 µM)

O=c1[nH]cc(F)c(=O)[nH]1 + CN1CCN(c2cc(C(=O)Nc3cc4cc(-c5cnn(C)c5)ccc4cn3)ccn2)CC1
> 10000 nM: IC50 (second compound 0.0316 µM) | IC50 (second compound 0.1 µM)
active: viability, T/C [22] 6.16% | viability, T/C [23] 6.71% | viability, T/C [24] 8.95% | viability, T/C [43] 7.13% | viability, T/C [44] 5.19% | viability, T/C [27] 9.61% | viability, T/C [28] 7.33% | viability, T/C [29] 9.99% | viability, T/C [30] 8.76% | viability, T/C [45] 12% | viability, T/C [46] 4.06% | viability, T/C [34] 2.54% | viability, T/C [35] 4.42% | viability, T/C [36] 2.63% | viability, T/C [47] 2.63% | viability, T/C [48] 3.59%
< 31.6 nM: IC50 (second compound 0.316 µM) | IC50 (second compound 1 µM) | IC50 (second compound 3.16 µM) | IC50 (second compound 10 µM)
inactive: viability, T/C [3] 84.2% | viability, T/C [4] 97.8% | viability, T/C [5] 93.7% | viability, T/C [6] 102% | viability, T/C [37] 88.8% | viability, T/C [38] 69.3% | viability, T/C [9] 64.1% | viability, T/C [10] 69.9% | viability, T/C [11] 70.5% | viability, T/C [12] 71.6% | viability, T/C [39] 64.8% | viability, T/C [40] 54.7% | viability, T/C [15] 35.7% | viability, T/C [16] 30.7% | viability, T/C [17] 37.5% | viability, T/C [18] 44.7% | viability, T/C [41] 38.3% | viability, T/C [42] 29.8% | viability, T/C [21] 12.8% | viability, T/C [33] 11%
